How the values were obtained:
[1] = Dissolution profile tests; assay type: physicochemical
[2] = in vivo; cited from earlier work

SMILES	% dissolved ([1]; t 0 min) [%]	% dissolved ([1]; t 10 min) [%]	% dissolved ([1]; t 60 min) [%]	AUC [2] [μ · h/mL]	Cmax [2] [ng/mL]	tmax [2] [h]	Bioavailability [2]	t1/2 [2] [h]
Cc1ncc(CO)c(CO)c1O.Cl [pyridoxine hydrochloride]	0.00	95.38	90.54					
Cc1cnc(NC(=O)C2=C(O)c3ccccc3S(=O)(=O)N2C)s1 [Meloxicam]				28.8	1620 ± 200	3.0 to 6.0		
CC(C)Cc1ccc(C(C)C(=O)O)cc1 (centres unmarked) [Ibuprofen]				70	20000	2	80%	
O=C(O)Cc1ccccc1Nc1c(Cl)cccc1Cl [Diclofenac]				4.4 ± 0.08	100 to 2200	1.98	50-60%	1.0 to 2.0
O=C(c1ccccc1)c1ccc2n1CCC2C(=O)O (centres unmarked) [Ketorolac]				4.81	5420	0.33 to 1.0	80%	3.0 to 6.0

— patent US12653798B2, “Fixed combination medicine for the control and management of neuropathic pain” (LABORATORIOS SILANES S.A. DE C.V., priority 2020, dated 2026)
